The text below walks through data of a melting point compilation (Tetko et al.; mined from patent text by program, amines drawn as free bases though some values may be those of a salt).

Molecules are shown by their SMILES.

The melting point is the temperature, or range, at which the solid turns liquid. Regarding `OCc1c(F)cccc1NC1CCN(Cc2ccccc2)CC1`, the melting point was 167 to 170 °C.
Next, `CC(C)(C)c1cc(SCCC(=O)N2CCN(Cc3ccccc3)CC2)cc(C(C)(C)C)c1O`: 92.5 to 95 °C.
As for `NC=C1C(=O)N(c2cccc(Cl)c2)c2ccccc21`, the figure is 141 to 143 °C; as for `N#Cc1ccc(Cn2cncc2CCOc2ccc3c(c2CCc2ccccc2)CCCC3=O)cc1`, 179 to 180 °C; as for `CC[C@@H]1O[C@](C#Cc2ccoc2)(C(F)(F)F)c2cc(Cl)ccc2NC1=O` (relative stereo), 169 to 170 °C.
Take `N=C(Nc1ccc(CCNC(=O)C(F)(F)F)cc1)c1cccs1`: the melting point is 181 to 182 °C.
As for `COc1ccc(C)cc1NC(=O)Nc1ccc(N2CCN(C(=O)C3CCCCC3)CC2)cc1`, the figure is 222 °C; as for `CCn1ccc(C(=O)c2cc(C(C)(C)C)c(O)c(C(C)(C)C)c2)c1`, 73 to 75 °C.
Next, `COc1ccc(Cc2n[nH]c3c2c(=O)n(-c2ccccc2)c2ncccc32)c(OC)c1`: 266 to 267 °C; `c1ccc(-c2cc3ccccc3o2)nc1`: 86 to 87 °C; `CN1CCN(c2cccc3ccc(NC(=O)c4ccc(Cl)cc4)cc23)CC1`: 174 to 175 °C.
`COc1ccc(S(=O)(=O)C=CC(=O)O)cc1` returned a melting point of 123 to 128 °C.
On to `OCC1CC(F)C(n2cnc3c(Cl)ncnc32)O1` (configuration not stated), for which the melting point is 157 to 158 °C.
As for `O=S(=O)(c1ccc(Br)cc1)N1CCN(CC2CCN(c3ccncc3)CC2)CC1`, the figure is 179 to 180 °C.
In turn, `OC1CCC(c2ccc(OCCCCCCCCCCCBr)cc2)CC1` (configuration not stated) came in with a melting point of 100 to 101 °C.
Next, `O=C(O)CCc1cccc(NC(=O)NCC(=O)N2[C@@H](c3ccccc3)CC[C@H]2c2ccccc2)c1`: 170 °C; `COc1ccc(-c2nc(SCCCCCc3nc4ccccc4[nH]3)[nH]c2-c2ccc(OC)cc2)cc1`: 85 to 86 °C.
Next, `O=c1c2c(Cl)cc(Cl)cc2n(Cc2ccccc2)c(=O)n1Cc1cccc(Cl)c1`: 123 to 129 °C.
For the compound `COc1ccc2[nH]cc(CCNC(=O)C(F)(F)F)c2c1`, the melting point lay within 135 to 136 °C.
As for `COc1ccc(C2CSc3ccccc3N(CC(=O)O)C2=O)cc1` (configuration not stated), the figure is 180 °C.
Compound `Nc1cccc(-c2cccc(-c3nc(-c4ccc(C(F)(F)F)cc4)cc(C(F)(F)F)n3)c2)c1` displayed a melting point of 156 °C.
`O=S1(=O)C=CC=CC=N1` yielded a melting point of 144 to 146 °C.
Next, `Nc1nc(OCc2cccc(Br)c2)ncc1F`: 143 to 145 °C.
Next, `CC(SN1C(=O)CCC1=O)c1ccccc1` (configuration not stated): 121 to 125 °C.
As for `CC(=O)c1c(-c2ccnc3ccccc23)[nH]c(-c2ccnc3ccccc23)c1C`, the figure is greater than 260 °C; as for `CON(C(=O)c1cn(C)nc1C(F)F)C(C)Cc1c(Cl)cc(Cl)cc1Cl` (configuration not stated), 110 to 112 °C.
`CCNC(=O)c1ccc(C=O)cc1` displayed a melting point of 100 °C.
As for `CC(=NOCCOc1ccc(CC2SC(=O)NC2=O)cc1)c1cc(C)c(O)c(C)c1` (configuration not stated), the figure is 53 to 65 °C; as for `Cc1cccc2c(Nc3cc(CO)cc(NC(=O)Nc4ccc(N(CCCl)CCCl)cc4)c3)c3ccccc3nc12`, 251 to 252 °C.
Next, `CNc1nc(-c2ccc(OCc3ccccc3)cc2)no1`: 148 to 150 °C; `C1=C(c2ccc3ccccc3c2)CCC2(C1)CCNCC2`: 137 to 141 °C; `O=C(O)Cn1cccc1`: 88 to 90 °C.
As for `CC(C)C(OC(=O)NC1(C(=O)O)CC1)OC(=O)C1CCCCC1` (configuration not stated), the figure is 156 to 158 °C; as for `O=C(O)Cc1ccc(OCCNC(=O)C2Cc3ccccc3N2S(=O)(=O)c2ccc(-c3ccc(F)cc3F)cc2)cc1` (configuration not stated), 92 to 99 °C.
`COC(=O)c1ccc(C(O)(c2ccc3[nH]c(=O)cc(-c4cccc(Cl)c4)c3c2)c2cncn2C)cc1` (configuration not stated) yielded a melting point of 255 °C.
Next, `CC(C)=CCOC1(C(F)(F)F)CN(C2CC2)C(=O)Nc2ccc(Cl)cc21` (configuration not stated): 130 to 131 °C.
As for `COC(=O)NN=C1C(=O)Nc2ccc(C3=NNC(=O)SC3C)cc21` (configuration not stated), the figure is 201 °C; as for `CCC(CC)(CC(=O)c1ccc(OC)c(OC)c1)C(=O)O`, 106 to 109 °C; as for `C[C@H](CSC(=O)c1ccccc1)C(=O)N1C(=O)N(C)C[C@H]1C(=O)OC(C)(C)C`, 128 °C.
As for `CSc1ccc(C(=O)c2c(C)c(C(=O)O)c3n2CCC3C(=O)O)n1C` (configuration not stated), the figure is 212 to 213 °C.
In turn, `C#CCc1c(C)nc2c(NCc3c(C)cccc3NC(=O)OC)cccn12` yielded a melting point of 149 to 150 °C.
Next, `CNC(=O)c1ccccc1-c1cc(C)no1`: 120 to 122 °C; `CN(C)CCC(O)c1ccc(Cl)s1` (configuration not stated): 76 to 77 °C.
Regarding `Cc1ccccc1NC(=O)CN1C[C@@H](C)N(S(=O)(=O)c2cccc(C#N)c2)[C@@H](C)C1`, the melting point lay in the range of 152 to 153 °C.
As for `CCOc1ccc2[nH]c(=O)n(-c3ccc(C(C)C)cc3)c2c1`, the figure is 100 °C; as for `CC(CNc1cccc(C(F)(F)F)c1)Nc1cccc(C(F)(F)F)c1` (configuration not stated), 116 to 120 °C; as for `O=C(O)c1cccc(-c2cccc3cc(Cc4cccc(C(F)(F)F)c4)oc23)c1`, 169 to 170 °C.
`Cc1cc(Oc2ccc([N+](=O)[O-])c(N(C)C(=O)OC(C)(C)C)c2)cc(C)c1NC(=O)OC(C)(C)C` registered a melting point of 154 to 156 °C.
As for `CN(C)C(=O)n1oc(CCl)c(Cl)c1=O`, the figure is 107 to 108 °C; as for `O=C(NCc1cc(C(F)(F)F)cc(C(F)(F)F)c1)c1c(-c2ccccc2)c2cccnc2c(=O)n1CCCCO`, 155 to 157 °C; as for `Nc1cccc2c1C(Cc1ccnc(F)c1)(Cc1ccnc(F)c1)c1ccccc1-2`, 182 to 184 °C.
In the case of `O=C(O)CSc1sccc1Br`, the melting point lay in the range of 64 to 65 °C.
Next, `COc1ccc(C2C(=O)OC3=CC(O)(OC(C)=O)C=CC3=C2C)c(OC)c1` (configuration not stated): 146 to 148 °C; `C=CCn1c2ccc(OC)cc2c2c3c(c(-c4ccccc4Cl)cc21)C(=O)N(Cc1ccc(OC)cc1OC)C3=O`: 171 to 173 °C.
As for `COC(=O)[C@H](CC(C)C)NC(=O)[C@H](NC(=O)OCc1ccccc1)C(C)C`, the figure is 112 to 114 °C.
Next, `O=C(O)CN1C(=O)SC(=Cc2ccc(OCc3ccccc3)c(OCc3ccccc3)c2)C1=O`: 167 to 170 °C; `CC(C)(C)c1cc(C(=O)NCc2ccc3c(Br)c(OC(Cc4ccccc4)C(=O)O)ccc3c2)cc(C(C)(C)C)c1` (configuration not stated): 160 to 163 °C; `O=C(c1cc(Cl)ccc1Cl)c1ccccc1I`: 64 to 66 °C.
`CC(C=CC(=O)NCCCN1CCCCC1)=CCc1ccc(Cl)c(Cl)c1` had a melting point of 50 to 60 °C.
Next, `S=c1sscc1-c1ccccc1`: 122 to 124 °C.
As for `COc1cc2c(cc1OC)C1(CCC(C(=O)O)(C(=O)O)CC1)N(C(=O)OCc1ccccc1)CC2`, the figure is 181 to 182 °C; as for `CC1CCN(C)c2nc(O)ccc21` (configuration not stated), 134 to 135 °C.
